Laboratory results from ChEMBL document CHEMBL1150513, “A Hammett correlation for CC-1065 and duocarmycin analogs: Magnitude of substituent electronic effects on functional reactivity” (Bioorg Med Chem Lett, 1996).
pIC50: −log10 of the molar value. Where “and” joins values, the source holds several entries; their conditions need not be identical. Equal values may be shown once.

Experiments:
[1] = Aqueous solvolysis, K value at a pH of 3.0.; format: ADME; settings: buffer, pH 3
[2] = Half life at a pH of 3.0.; format: ADME; settings: pH 3
[3] = system: L1210; experiment: Compound was tested in vitro for cytotoxic potency against L1210 leukemia.; format: functional, cell-based; settings: Mus musculus
[4] = Half life at 0.1 equivalent H+ and 20 equivalent CH3OH.; format: ADME
[5] = Kinetic constant at 0.1 equivalent H+ and 100 equivalent CH3OH.; format: ADME
[6] = Kinetic constant at 0.1 equivalent H+ and 20 equivalent CH3OH.; format: ADME
[7] = Half life at 0.25 equivalent H+ and 100 equivalent CH3OH.; format: ADME
[8] = Kinetic constant at 0.1 equivalent H+ and 500 equivalent CH3OH.; format: ADME
[9] = Half life at a pH of 2.0.; format: ADME; settings: pH 2
[10] = Aqueous solvolysis, K value at a pH of 2.0.; format: ADME; settings: buffer, pH 2
[11] = Half life at 0.1 equivalent H+ and 500 equivalent CH3OH.; format: ADME
[12] = Kinetic constant at 0.25 equivalent H+ and 100 equivalent CH3OH.; format: ADME

| Structure (SMILES) | k [1] [s⁻¹] | half-life [2] [h] | pIC50 [3] | also measured |
| --- | --- | --- | --- | --- |
| CNC(=O)N1C[C@H]2C[C@@]23C1=CC(=O)c1ccccc13 | 5.3e-06 | 36 | 6.70 | – |
| COC(=O)N1C[C@H]2C[C@@]23C1=CC(=O)c1ccccc13 | 3.4e-06 | 57 | 6.85 | – |
| CC(C)(C)OC(=O)N1C[C@H]2C[C@]23C=CC(=O)C=C13 | 1.98e-06 | 0.01 | 4.74 | – |
| CCS(=O)(=O)N1C[C@H]2C[C@@]23C1=CC(=O)c1ccccc13 | 5e-07 | 383 | 7.62 | – |
| COC(=O)c1cc2c([nH]1)C(=O)C=C1N(C(=O)OC(C)(C)C)C[C@H]3C[C@]123 | 1.08e-06 | – | – | – |
| CC(C)(C)OC(=O)N1CC[C@H]2C[C@@]23C1=CC(=O)c1ccccc13 | 9.07e-06 | 2.1 | 5.70 | – |
| CC(C)(C)OC(=O)N1C[C@H]2C[C@@]23C1=CC(=O)c1ccc(C#N)cc13 | 9e-07 | 213 | 7.70 | half-life [4]: 9.2 h; k [5]: 2.1 s⁻¹; k [6]: 0.2 s⁻¹; half-life [7]: 0.26 h; k [8]: 5.6 s⁻¹; half-life [9]: 24.2 h; k [10]: 7.9e-06 s⁻¹; T1/2 [11]: 0.92 h and 0.34 h; k [12]: 7.4 s⁻¹ |
| COC(=O)[C@]1(C)N=C2C(=O)C=C3N(C(=O)OC(C)(C)C)C[C@H]4C[C@@]34C2=C1O | 1.75e-06 | – | 6.00 | – |
| CCC(=O)N1C[C@H]2C[C@@]23C1=CC(=O)c1ccccc13 | 2e-06 | 96 | 6.96 | – |
| Cc1c[nH]c2c1[C@@]13C[C@@H]1CN(C(=O)OC(C)(C)C)C3=CC2=O | 5.26e-06 | – | – | – |
| CC(C)(C)OC(=O)N1C[C@H]2C[C@@]23C1=CC(=O)c1ccccc13 | 1.45e-06 | 133 | 7.10 | k [10]: 1.53e-05 s⁻¹ |
| COc1ccc2c(c1)[C@@]13C[C@@H]1CN(C(=O)OC(C)(C)C)C3=CC2=O | 1.75e-06 | 110 | 7.05 | half-life [9]: 11.8 h; k [10]: 1.62e-05 s⁻¹ |
